Measured values from US20240009224A1, “ACYCLIC THREONINOL NUCLEIC ACID” (The University of Tokyo, priority 2021, published 2024).
{Fluorescein} = fluorescein label

Test system: HeLa cells
Assay: Flow cytometry of HeLa cells after introduction of fluorescein-labeled nucleic acid (cell membrane permeability)
Assay type: cell-based
Settings: fluorescein-labeled control DNA = 1
Procedure: HeLa cells were cultured in Dulbecco's modified Eagle's medium (DMEM, manufactured by Thermo Fisher Scientific, Inc.) supplemented with 10% FBS and 0.5% penicillin/streptomycin in a humidified atmosphere (5 vol % CO2) at 37° C. Cells for image analysis were cultured in a 35 mm glass bottom dish (IWAKI, manufactured by AGC Techno Glass Co., Ltd.).
[…] On the day after seeding, the medium in each well was changed to DMEM medium (1 mL) containing a fluorescein-conjugated nucleic acid (2.5 μM) and incubated for 4 or 24 hours. Then, after washing the cell layer in the well twice with PBS, the cells were detached by treatment with 0.05% (w/v) trypsin (200 μL) at 37° C. for 5 minutes. The recovered cells were suspended in DMEM (600 μL). The cell suspension was separated by centrifugation process (400×g, 3 minutes), and PBS/1% BSA (500 μL) was added thereto. The ratio of fluorescent cells in this cell suspension and the mean fluorescence intensity were analyzed with a flow cytometer (“guava easyCyte8”, manufactured by Luminex Corporation).
After introducing a nucleic acid (fluorescein-labeled aTNA-N5[PFC8]) in which fluorescein was bound to the 3′-end of the synthesized aTNA-N5[PFC8] into HeLa cells, flow cytometry was performed, and the number of cells into which the fluorescein-labeled nucleic acid was introduced and the amount of fluorescein-labeled nucleic acid introduced into each cell were quantified based on the fluorescence intensity of fluorescein. As a control, a nucleic acid in which fluorescein was bound to the 3′-end of the control DNA (fluorescein-labeled control DNA) was also introduced into HeLa cells in the same manner and then analyzed by flow cytometry.
The fluorescein-labeled aTNA-N5[PFC8] produced in Example 1 was hybridized with a single-stranded DNA (control rDNA) composed of a base sequence (SEQ ID NO: 2) complementary to that of the control DNA to produce a fluorescein-labeled double-stranded DNA (fluorescein-labeled aTNA-N5[PFC8]/rDNA) having a repeating structure of the structure (A1) at the 5′-end and bound with fluorescein at the 3′-end. […] These fluorescein-labeled double-stranded DNAs were introduced into HeLa cells and then analyzed by flow cytometry in the same manner as in Example 1.
After respectively introducing nucleic acids (fluorescein-labeled aTNA-C2[PFC8] and fluorescein-labeled aTNA-C5[PFC8]) in which fluorescein was bound to the 3′-ends of the synthesized aTNA-C2[PFC8] and aTNA-C5[PFC8] into HeLa cells, flow cytometry was performed, and the number of cells into which the fluorescein-labeled nucleic acid was introduced and the amount of fluorescein-labeled nucleic acid introduced into each cell were quantified based on the fluorescence intensity of fluorescein. […]

Measured: Relative fluorescence intensity of cells into which fluorescein-labeled nucleic acid was introduced

Control DNA: control DNA (Seq. No. 1), natural single stranded DNA; fluorescein bound to the 3′-end (DNA TTTTTCAGTTGACCATATA; DNA, 3' {Fluorescein}, backbone and methylation of C not given here)
1.0: Example 1, single-stranded, 2.5 μM, 4 or 24 hours | Example 3, single-stranded | Example 4, single-stranded, 96-well plate, 10^4 cells per well, 2.5 μM, 4 hours | Example 6, single-stranded, 96-well plate, 10^4 cells per well, 2.0 μM, 4 hours
